# Test system: phospho-GSK-3β
# Experiment: GSK 3b assay: Zn ionophore-enhanced phosphorylation of GSK-3β (AlphaScreen SureFire Phospho-GSK 3β (Ser9) kit) in SH-SY5Y cells
# Type: cell-based, human
# Details: test compound 2 μM + ZnCl2 5 μM, 2 h at 37° C.
# Protocol: The phosphorylation of GSK-3β is enhanced when Zn is imported into a cell by a Zn ionophore. This property was measured for the compounds of the current invention and the data presented relative to the know Zn ionophore PBT2 using the following protocol.
# The human neuroblastoma SH-SY5Y cells were obtained from Cell bank Australia (Catalogue number: 94030304). SH-SY5Y cell culture was maintained in DMEM/F12+15% FBS inside an incubator at 37° C. in the presence of 5% CO2. The cells were sub-cultured once a week and the media exchanged once during the week. Cells for the assay were plated at a density of 60,000 cells/well.
# Stock solutions of the samples were prepared as a 5 mM stock in DMSO and a stock solution of 1 mM ZnCl2/3 mM Glutamic acid was prepared in water. Immediately before use the compounds were diluted 1:10 with water before being added to Locke's buffer in a treatment tube. Samples were subsequently treated with either distilled water or the ZnCl2/Glutamic acid solution to yield a treatment solution which has a final concentration of the test compound at 2 μM+/−ZnCl2 at 5 μM.
# The culture media was aspirated from the wells and the media replaced with the treatment solution prepared above. In addition to the relative standard (PBT2+/−ZnCl2), control wells were also included consisting of +/−ZnCl2 at 5 μM with all treatments done in triplicate. The plate was incubated at 37° C. with the treatment solution for 2 h after which time the wells were aspirated and washed with sterile PBS.
# Measurement of the change of phospho-GSK-3β was determined using an AlphaScreen® SureFire® Phospho-GSK […] (Ser9) Kit with the cells being processed as per the manufacturer's instructions using an initial incubation of 2 h/24° C. and a final incubation of 16 h/24° C.
# The fluorescence was measured on an Enspire plate reader. […] Representative data is presented in Table 12 using the following ranges: A<50%, B 50-<100%, C 100-<150%, D>150%.
row,SMILES,GSK-Zn (signal as % of the positive standard PBT2+ZnCl2)
1,O=C(N/N=C/c1nccs1)c1cc(Cl)ccc1O [Compound 109],B (B 50-<100%)
2,C/C(=N\NC(=O)c1ccccc1Cl)c1cccc(C)n1 [Compound 67],C (C 100-<150%)
3,Cc1cccc(C(=O)N/N=C/c2nccs2)c1O [Compound 119],A (A<50%)
4,"C/C(=N\NC(=O)c1cc2ccccc2s1)c1ccccn1 [Compound 146, (E)-N′-(1-(Pyridin-2-yl)ethylidene)benzo[b]thiophene-2-carbohydrazide]",C (C 100-<150%)
5,C/C(=N\NC(=O)c1cc2ccccc2s1)c1cc(C)ccn1 [Compound 72],C (C 100-<150%)
6,C/C(=N\NC(=O)c1cccc(C)c1O)c1ccc(C)s1 [Compound 103],B (B 50-<100%)
7,COc1cccc(C(=O)N/N=C(\C)c2cccc(C)n2)c1 [Compound 64],B (B 50-<100%)
8,O=C(N/N=C1\CCCc2cccnc21)c1cccc(Cl)c1 [Compound 16],A (A<50%)
9,CCOc1cccc(C(=O)NN=C(c2cccc(C)n2)c2cccc(C)n2)c1 [Compound 132],C (C 100-<150%)
10,C/C(=N\NC(=O)c1cc(Cl)ccc1O)c1nc(C)cs1 [Compound 95],C (C 100-<150%)
11,O=C(N/N=C1\CCCc2cccnc21)c1cc2c(s1)-c1ccccc1OC2 [Compound 25],B (B 50-<100%)
12,C/C(=N\NC(=O)c1cccc(C)c1O)c1cccc(C)n1 [Compound 65],B (B 50-<100%)
13,"Cl.O=C(N/N=C1\CCCc2cccnc21)c1ccccc1OCCN1CCCC1 [Compound 41, (E)-N′-(6,7-Dihydroquinolin-8(5H)-ylidene)-2-(2-(pyrrolidin-1-yl)ethoxy)benzohydrazide hydrochloride]",A (A<50%)
14,"CC/C(=N\NC(=O)c1snnc1C)c1ncccn1 [Compound 43, (E)-4-Methyl-N′-(1-(pyrimidin-2-yl)propylidene)-1,2,3-thiadiazole-5-carbohydrazide]",C (C 100-<150%)
15,O=C(N/N=C1\CCCc2cccnc21)c1ccc(C(F)(F)F)cc1 [Compound 20],A (A<50%)
16,Cc1ccccc1C(=O)N/N=C1\CCCc2cccnc21 [Compound 18],B (B 50-<100%)
17,O=C(N/N=C1\CCCc2cccnc21)c1cc(Cl)ccc1O [Compound 11],C (C 100-<150%)
18,"COc1cc(C(=O)NN=C(c2cccc(C)n2)c2cccc(C)n2)ccc1O [Compound 130, N′-(bis(6-Methylpyridin-2-yl)methylene)-4-hydroxy-3-methoxybenzohydrazide]",A (A<50%)
19,CC/C(=N\NC(=O)c1cccc(C)c1O)c1ncccn1 [Compound 46],C (C 100-<150%)
20,C/C(=N\NC(=O)c1ccccc1O)c1nc2ccccc2s1 [Compound 104],D (D>150%)
21,COc1cc(C(=O)N/N=C2\CCCc3cccnc32)ccc1O [Compound 21],A (A<50%)
22,Cc1cccc(C(=NNC(=O)c2cc(Cl)ccc2O)c2cccc(C)n2)n1 [Compound 128],D (D>150%)
23,C/C(=N\NC(=O)c1cccc(C)c1O)c1ccc2ccccc2n1 [Compound 82],C (C 100-<150%)
24,Cc1cccc(C(=NNC(=O)c2cccc(C)c2O)c2cccc(C)n2)n1 [Compound 129],C (C 100-<150%)
25,CC/C(=N\NC(=O)c1cccc(OC)c1)c1ncccn1 [Compound 45],C (C 100-<150%)
26,O=C(N/N=C/c1nc2ccccc2s1)c1cc(Cl)ccc1O [Compound 115],A (A<50%)
27,Cc1cccc(C(=O)NN=C(c2cccc(C)n2)c2cccc(C)n2)c1 [Compound 133],C (C 100-<150%)

row,SMILES,GSK-Zn (signal as % of the positive standard PBT2+ZnCl2)
1,Cc1cccc(C(=O)N/N=C\c2cn3ccccc3n2)c1 [Compound 121],A (A<50%)
2,C/C(=N\NC(=O)c1cccc(C)c1O)c1nc2ccccc2s1 [Compound 105],B (B 50-<100%)
3,Cc1cccc(C(=NNC(=O)c2ccc(N(C)C)cc2)c2cccc(C)n2)n1 [Compound 123],C (C 100-<150%)
4,C/C(=N\NC(=O)c1ccccc1O)c1ccc2ccccc2n1 [Compound 76],C (C 100-<150%)
5,COc1ccc(C(=O)NN=C(c2cccc(C)n2)c2cccc(C)n2)cc1OC [Compound 126],C (C 100-<150%)
6,COc1cc(C(=O)N/N=C(\C)c2ccc3ccccc3n2)ccc1O [Compound 87],C (C 100-<150%)
7,Cc1cccc(C(=NNC(=O)c2ccccc2F)c2cccc(C)n2)n1 [Compound 134],B (B 50-<100%)
8,C/C(=N\NC(=O)c1ccccc1O)c1nc(C)cs1 [Compound 94],C (C 100-<150%)
9,C/C(=N\NC(=O)c1cccc(C)c1)c1ccc2ccccc2n1 [Compound 81],C (C 100-<150%)
10,Cc1cccc(C(=O)N/N=C(/c2ncccn2)C(C)C)c1 [Compound 51],B (B 50-<100%)
11,"C/C(=N\NC(=O)c1snnc1C)c1nc(C)cs1 [Compound 100, (E)-4-Methyl-N′-(1-(4-methylthiazol-2-yl)ethylidene)-1,2,3-thiadiazole-5-carbohydrazide]",C (C 100-<150%)
12,C/C(=N\NC(=O)c1ccccc1C)c1cc(C)ccn1 [Compound 74],B (B 50-<100%)
13,COc1ccc(C(=O)N/N=C(\C)c2ccc3ccccc3n2)cc1OC [Compound 77],C (C 100-<150%)
14,C/C(=N\NC(=O)c1snnc1C)c1cc(C)ccn1 [Compound 73],C (C 100-<150%)
15,"O=C(N/N=C1\CCCc2cccnc21)c1ccccc1O [Compound 12, (E)-N′-(6,7-dihydroquinolin-8(5H)-ylidene)-2-hydroxybenzohydrazide]",B (B 50-<100%)
16,C/C(=N\NC(=O)c1cc(Cl)ccc1O)c1ccc2ccccc2n1 [Compound 92],C (C 100-<150%)
17,COc1cccc(C(=O)NN=C(c2cccc(C)n2)c2cccc(C)n2)c1 [Compound 131],B (B 50-<100%)
18,C/C(=N\NC(=O)c1cc2ccccc2s1)c1cccc(C)n1 [Compound 75],C (C 100-<150%)
19,Cc1cccc(C(=NNC(=O)c2ccccn2)c2cccc(C)n2)n1 [Compound 135],B (B 50-<100%)
20,"COc1ccc(C(=O)N/N=C2\CCc3cccnc32)cc1OC [Compound 38, (E)-N′-(5H-Cyclopenta[b]pyridin-7(6H)-ylidene)-3,4-dimethoxybenzohydrazide]",A (A<50%)
21,Cc1cccc(C(=O)N/N=C\c2nc(C)c(C)s2)c1 [Compound 106],A (A<50%)
22,O=C(N/N=C1\CCCc2cccnc21)c1cc2ccccc2s1 [Compound 24],A (A<50%)
23,CC/C(=N\NC(=O)c1cccc(C)c1)c1ncccn1 [Compound 44],B (B 50-<100%)
24,COc1ccc(Cl)cc1C(=O)N/N=C1\CCCc2cccnc21 [Compound 17],A (A<50%)
25,COc1ccc(C(=O)N/N=C2/c3ncccc3CCC2(C)C)cc1OC [Compound 26],A (A<50%)
26,COc1cccc(C(=O)N/N=C(\C)c2ccc3ccccc3n2)c1 [Compound 78],C (C 100-<150%)
